Where two headings read alike, the source gives them in different places.
Experiments:
Format in all cases: in vivo
[1] = test system: cotton aphid (Aphis gossypi); assay: Cotton aphid foliar spray test on squash (CA 200); settings: 72 h, squash cotyledons, 3 days, Corrected % Control (Abbott), read-out: CA 200: % control against cotton aphid in foliar spray tests
Protocol: The compounds identified in TABLE 2 were prepared using the procedures illustrated in the previous examples and these compounds were tested against beet armyworm, mosquito, fruit fly, and cotton aphid using protocols described after. […]
Squash with fully expanded cotyledon leaves were trimmed to one cotyledon per plant and infested with cotton aphid (wingless adult and nymph) 1 day prior to chemical application.
Each plant is examined before chemical application to ensure proper infestation (ca. 30-70 aphids per plant). Compounds (3 mg) were dissolved in 3 mL of acetone:methanol (50:50) solvent, forming stock solutions of 1000 ppm. The stock solutions were then diluted with 0.025% Tween 20 (in H2O) to make […]. A hand-held Devilbiss sprayer was used to apply the spray solutions until runoff to both sides of the squash cotyledon leaves. Four plants (4 replications) were used for each concentration of each compound. Reference plants (solvent check) were sprayed with 0.025% Tween 20 only. Treated plants were held in a holding room for 3 days at approximately 23° C. and 40% RH before the number of live aphids on each plant was recorded. Insecticidal activity was measured by Corrected % Control using Abbott's correction formula and presented in TABLE 2: Corrected % Control=100*(X−Y)/X • where X=No. of live aphids on solvent check plants • Y=No. of live aphids on treated plants

[2] = test system: beet armyworm (Spodoptera exigua) larvae; assay: Beet armyworm mortality on artificial diet (LAPHEG); settings: 168 h, read-out: LAPHEG: % mortality against beet armyworm on artificial diet
Protocol: (§1) The compounds identified in TABLE 2 were prepared using the procedures illustrated in the previous examples and these compounds were tested against beet armyworm, mosquito, fruit fly, and cotton aphid using protocols described after.
(§2) Compounds were evaluated on mosquito (Aedes aegypti) larvae, beet armyworm (Spodoptera exigua) larvae, fruit fly (Drosophila melanogaster) adults and cotton aphid (Aphis gossypi). Newly hatched mosquito larvae (about 50 larvae/well) in 96-well microtiter plates in 230 ul of water containing powdered liver/yeast extract (1 gr/100 ml) were treated with 20 ppm solution of the test compound. Following treatment the plates were covered with a lid and mortality was determined three days after treatment. Beet armyworm eggs (about 5 per well) were placed on artificial diet (in a 96-well microtiter plate) treated with a 4000 ppm solution of a test compound in combination with piperonyl butoxide (in approximate ratio of 1:4). After infestation, the plates were covered with a lid and mortality was determined seven days following treatment. Five-day old fruit fly adults (about 5/well) were placed in deep-well microtiter plates containing 250 ul/well of a 2% agar-10% sucrose mixture that had been treated with a 4000 ppm solution of a test compound. Following infestation, the plates were covered with a lid and mortality was determined three days after treatment. Treatments for the mosquito and armyworm were replicated six times each, that of the fruit fly three times each.

[3] = test system: mosquito (Aedes aegypti) larvae; assay: Mosquito larvae mortality (AEDSAE); settings: 72 h, read-out: AEDSAE: % mortality against mosquito larvae
Protocol: as §1, §2

[4] = test system: fruit fly (Drosophila melanogaster) adults; assay: Adult fruit fly mortality on artificial diet (DROSME); settings: 72 h, read-out: DROSME: % mortality against adult fruit fly on artificial diet
Protocol: as §1, §2

[5] = test system: Leptosphaeria nodorum=Stagnospora nodorum; assay: Fungicidal test for LEPTNO, glume blotch of wheat, one day protectant; settings: 24 h, wheat plants (variety Yuma), sprayed one day before inoculation
Protocol: (§3) The compounds identified in Table 4 were prepared using the procedures illustrated in the previous examples and these compounds were tested against wheat glume blotch and wheat leaf blotch using the protocols described herein. Fungicidal Test for […] Each pot contained 3-20 seedlings. These plants were sprayed until wet with the formulated test compound at a rate of 25 ppm. On the following day, the leaves were inoculated with an aqueous spore suspension of Leptosphaeria nodorum and the plants were kept in high humidity (one day in a dark dew chamber followed by four to seven days in a lighted dew chamber) to permit spores to germinate and infect the leaf. The plants were then transferred to a greenhouse until disease developed on untreated control plants.

[6] = test system: Mycosphaerella graminicola=Septoria tritici; assay: Fungicidal test for SEPTTR, speckled leaf blotch of wheat, one day protectant; settings: 24 h, wheat plants (variety Monon), sprayed one day before inoculation
Protocol: as §3, with “Speckled Leaf Blotch of Wheat (Mycosphaerella graminicola=Septoria tritici; Bayer code […]): Wheat plants (variety Monon) were grown from seed in a greenhouse in 50% pasteurized soil/50% soil-less mix until the first true leaf was fully expanded, with 3-8 seedlings per pot.” for “Each pot contained 3-20 seedlings.”, “Septoria tritici” for “Leptosphaeria nodorum”, “leaf” for “leaf.”

[7] = 4000 μg/ml, with piperonyl butoxide (approx. 1:4), mortality seven days after treatment
[8] = 20 μg/ml, mortality three days after treatment
[9] = 4000 μg/ml, mortality three days after treatment

SMILES | pest or weed control at 200 ppm [1] | mortality at 4000 µg/mL [2, 7] | mortality at 20 µg/mL [3, 8] | mortality at 4000 µg/mL [4, 9] | mortality at 4000 µg/mL [2] | mortality at 20 µg/mL [3] | mortality at 4000 µg/mL [4] | pest or weed control at 25 ppm [5] | pest or weed control at 25 ppm [6]
COc1ccc(CN2CCN(CCc3ccccc3C(F)(F)F)CC2)cc1Cl [Compound 95] | 50 to 100% | 1 to 25% | 1 to 25% | 26 to 49% | – | – | – | – | –
COC(=O)c1cccc(CN2CCN(CCc3ccccc3)CC2)c1 [Compound 90] | 50 to 100% | 1 to 25% | 1 to 25% | 26 to 49% | – | – | – | – | –
Clc1cc2c(cc1CN1CCN(CCOc3ccccc3)CC1)OCO2 [Compound 103] | 50 to 100% | 1 to 25% | 1 to 25% | 1 to 25% | – | – | – | – | –
FC(F)(F)Oc1cccc(CN2CCN(CCc3ccccc3)CC2)c1 [Compound 91] | 1 to 25% | 1 to 25% | 1 to 25% | 26 to 49% | – | – | – | – | –
COC(=O)c1cccc(CN2CCN(CCOc3ccccc3)CC2)c1 [Compound 303] | – | 1 to 25% | 1 to 25% | 26 to 49% | – | – | – | – | –
O=C(c1ccccc1)c1ccc(CN2CCN(C(=O)C3CC3)CC2)cc1 [Compound 321] | – | 1 to 25% | 1 to 25% | 1 to 25% | – | – | – | – | –
O=C(COc1ccccc1)N1CCN(C(=O)OCc2ccccc2)CC1 [Compound 139] | – | 26 to 49% | 1 to 25% | 1 to 25% | – | – | – | – | –
O=C(Cc1ccc(Cl)cc1)N1CCN(Cc2ccccc2)CC1 [Compound 38] | 50 to 100% | – | – | – | 1 to 25% | 1 to 25% | 1 to 25% | – | –
O=C(c1ccc(-c2ccccn2)s1)N1CCN(CCc2ccccc2C(F)(F)F)CC1 [Compound 126] | 50 to 100% | 1 to 25% | 1 to 25% | 1 to 25% | – | – | – | – | –
O=C(c1ccc(Cl)cc1)N1CCN(Cc2ccccc2)CC1 [Compound 44] | 1 to 25% | 1 to 25% | 1 to 25% | 1 to 25% | – | – | – | – | –
CC(c1ccccc1)N1CCN(Cc2csc3ccc(Cl)cc23)CC1 (stereo not drawn) [Compound 236] | – | – | – | – | – | – | – | 50 to 100% | 1 to 25%
O=C(C1CC1)N1CCN(Cc2ccc(OCc3ccccc3)cc2)CC1 [Compound 114] | – | – | – | – | – | – | – | 1 to 25% | 50 to 100%
N#Cc1cccc(CN2CCN(CCc3ccccc3)CC2)c1 [Compound 17, 3-{[4-(2-phenylethyl)piperazin-1-yl]methyl}benzonitrile] | 1 to 25% | 1 to 25% | 1 to 25% | 26 to 49% | – | – | – | – | –
O=C(OCc1ccccc1)N1CCN(Cc2ccc(Cl)nc2)CC1 [Compound 192] | – | 1 to 25% | 1 to 25% | 1 to 25% | – | – | – | – | –
Cc1nn(C)c2sc(C(=O)N3CCN(CCc4ccccc4C(F)(F)F)CC3)cc12 [Compound 160] | 1 to 25% | 1 to 25% | 1 to 25% | 1 to 25% | – | – | – | – | –
Cc1nn(C)c2sc(C(=O)N3CCN(C(C)c4ccccc4)CC3)cc12 (stereo not drawn) [Compound 162] | – | 1 to 25% | 1 to 25% | 26 to 49% | – | – | – | – | –
FC(F)(F)c1ccccc1CCN1CCN(Cc2ccc3c(c2)OCO3)CC1 [Compound 107] | 50 to 100% | 1 to 25% | 1 to 25% | 50 to 100% | – | – | – | – | –

SMILES | pest or weed control at 200 ppm [1] | mortality at 4000 µg/mL [2, 7] | mortality at 20 µg/mL [3, 8] | mortality at 4000 µg/mL [4, 9] | mortality at 4000 µg/mL [2] | mortality at 20 µg/mL [3] | mortality at 4000 µg/mL [4] | pest or weed control at 25 ppm [5] | pest or weed control at 25 ppm [6]
COc1cc(CN2CCN(CCc3ccccc3C(F)(F)F)CC2)c([N+](=O)[O-])cc1OC [Compound 99] | 50 to 100% | 1 to 25% | 1 to 25% | 1 to 25% | – | – | – | – | –
CC(=O)c1ccccc1C(=O)N1CCN(CCc2ccccc2C(F)(F)F)CC1 [Compound 105] | 50 to 100% | 1 to 25% | 1 to 25% | 1 to 25% | – | – | – | – | –
FC(F)(F)c1ccccc1CCN1CCN(Cc2cc3c(cc2Cl)OCO3)CC1 [Compound 86] | 50 to 100% | 1 to 25% | 26 to 49% | 1 to 25% | – | – | – | – | –
O=C(c1ccc2ccccc2n1)N1CCN(CCc2ccccc2C(F)(F)F)CC1 [Compound 156] | 50 to 100% | 1 to 25% | 1 to 25% | 1 to 25% | – | – | – | – | –
O=C(OCc1ccccc1)N1CCN(C(=O)c2cccs2)CC1 [Compound 146] | – | 1 to 25% | 1 to 25% | 1 to 25% | – | – | – | – | –
Clc1cc2c(cc1CN1CCN(CCC3CCCCC3)CC1)OCO2 [Compound 102] | 50 to 100% | 1 to 25% | 1 to 25% | 1 to 25% | – | – | – | – | –
CC(CN1CCN(Cc2cc3c(cc2Cl)OCO3)CC1)c1ccccc1 (stereo not drawn) [Compound 333] | 50 to 100% | 1 to 25% | 1 to 25% | 50 to 100% | – | – | – | – | –
CC(C)(C)OC(=O)N1CCN(CCc2ccccc2C(F)(F)F)CC1 [Compound 96] | 50 to 100% | 26 to 49% | 1 to 25% | 1 to 25% | – | – | – | – | –
FC(F)(F)c1ccccc1CCN1CCN(Cc2ccccc2Cl)CC1 [Compound 101] | 50 to 100% | 1 to 25% | 1 to 25% | 1 to 25% | – | – | – | – | –
FC(F)(F)c1ccc(CN2CCN(CCc3ccccc3C(F)(F)F)CC2)o1 [Compound 87] | 26 to 49% | 1 to 25% | 1 to 25% | 1 to 25% | – | – | – | – | –
O=C(c1ccco1)N1CCN(Cc2ccccc2)CC1 [Compound 34] | – | 1 to 25% | 1 to 25% | 1 to 25% | – | – | – | – | –
COc1ccc(CN2CCN(CCc3ccccc3C(F)(F)F)CC2)c(Cl)c1OC [Compound 108] | 50 to 100% | 1 to 25% | 1 to 25% | 1 to 25% | – | – | – | – | –
Clc1cc2c(cc1CN1CCN(CCc3ccccc3)CC1)OCO2 [Compound 104] | 50 to 100% | 1 to 25% | 1 to 25% | 50 to 100% | – | – | – | – | –
FC(F)(F)c1ccccc1CCN1CCN(CC2COc3ccccc3O2)CC1 (stereo not drawn) [Compound 100] | 50 to 100% | 1 to 25% | 1 to 25% | 26 to 49% | – | – | – | – | –
O=C(OCc1ccccc1)N1CCN(C(=O)c2ccc3ccccc3n2)CC1 [Compound 159] | – | 1 to 25% | 1 to 25% | 1 to 25% | – | – | – | – | –
O=C(c1coc2ccccc12)N1CCN(Cc2ccccc2)CC1 [Compound 50] | 50 to 100% | 1 to 25% | 1 to 25% | 1 to 25% | – | – | – | – | –
